The values that follow come from DBAASP.

As a reminder, the MIC is the lowest concentration that inhibits growth of the organism.

Converted amounts (≈) assume the structure as drawn.

Test systems include Escherichia coli JM109; Pseudomonas aeruginosa; Staphylococcus aureus; Shigella dysenteriae; Bacillus subtilis; Bacillus subtilis 168; Escherichia coli B; Escherichia coli.
What all share (test): ≥ marks a high value that may be exact or a test limit, other limits are often not marked, values filed in µg/mL are converted to µM
The subject of test [1] is Staphylococcus aureus ATCC 6538P.
In test [2] the test system is Bacillus subtilis ATCC 6633.
For test [3], the system named is Candida albicans ATCC 2002.
Test [4] has as its system Escherichia coli ATCC 25922.
The test system of test [5] is Staphylococcus aureus ATCC 2592.
In test [6] the test system is Pseudomonas aeruginosa ATCC 27853.
Test [7] deals with Enterococcus faecalis ATCC 29212.
Test [8] concerns Staphylococcus aureus NCTC 8325.
The subject of test [9] is Staphylococcus epidermidis RP62A.
Test [10] deals with Candida albicans F7-39/IDE99.
Test [11] relates to Pseudomonas aeruginosa CMCCB 10104.
Test [12] has as its system Klebsiella pneumoniae ATCC 13883.
Test [13] deals with Salmonella enterica subsp. enterica serovar Typhimurium ATCC 14028.
For test [14], the system named is Staphylococcus aureus ATCC 25923.
The subject of test [15] is Streptococcus pyogenes ATCC 19615.

In the case of `CC[C@H](C)[C@H](NC(=O)[C@H](C)NC(=O)[C@H](CC(C)C)NC(=O)[C@H](CC(C)C)NC(=O)[C@H](Cc1c[nH]c2ccccc12)NC(=O)[C@H](C)N)C(=O)N[C@@H](CCCN=C(N)N)C(=O)N[C@@H](CCCN=C(N)N)C(=O)N[C@@H](CCCN=C(N)N)C(N)=O` [AWLLAIRRR], the MIC in the test on Escherichia coli JM109 was 2.6 µM (≈ 3 µg/mL); against Pseudomonas aeruginosa, 3.46 µM (≈ 4 µg/mL); in test [1] it was 1.73 µM (≈ 2 µg/mL); in the test on Staphylococcus aureus, 17.3 µM (≈ 20 µg/mL).

In the case of `CC[C@H](C)[C@H](NC(=O)[C@@H]1CCCN1C(=O)[C@H](Cc1ccccc1)NC(=O)[C@@H](N)Cc1ccccc1)C(=O)N[C@H](C(=O)NCC(=O)N[C@@H](CCCCN)C(=O)N[C@@H](CCCN=C(N)N)C(=O)N[C@@H](CC(C)C)C(=O)N[C@@H](Cc1ccc(O)cc1)C(=O)NCC(=O)N[C@@H](CC(C)C)C(=O)N[C@@H](CC(C)C)C(N)=O)C(C)C` [FFPIVGKRLYGLL], the MIC worked out at 6.16 µM (≈ 9.37 µg/mL) in test [2]; 24.6 µM (≈ 37.5 µg/mL) in [3]; 46 µM (≈ 70 µg/mL) in test [4]; 12.3 µM (≈ 18.7 µg/mL) against Shigella dysenteriae; 3.09 µM (≈ 4.7 µg/mL) in test [5].

Consider `CC[C@H](C)[C@H](NC(=O)[C@H](C)NC(=O)CNC(=O)[C@@H](NC(=O)[C@@H](NC(=O)[C@@H](NC(=O)CNC(=O)[C@@H](NC(=O)[C@@H](NC(=O)[C@@H](NC(=O)[C@H](C)NC(=O)[C@H](Cc1ccccc1)NC(=O)[C@H](CC(C)C)NC(=O)[C@H](CCCN=C(N)N)NC(=O)[C@H](CCCN=C(N)N)NC(=O)[C@H](CC(C)C)NC(=O)CNC(=O)CNC(=O)[C@@H](NC(=O)[C@@H](N)Cc1ccccc1)[C@@H](C)CC)[C@@H](C)O)C(C)C)C(C)C)[C@@H](C)O)C(C)C)C(C)C)C(=O)N[C@@H](CC(N)=O)C(=O)N[C@@H](CCCCN)C(=O)N[C@@H](CC(C)C)C(=O)NCC(=O)NCC(=O)NCC(=O)O` [FIGGLRRLFATVVGTVVGAINKLGGG], for which the MIC in the test with Bacillus subtilis was no less than 38.9 µM; in test [3], 2.45 µM (≈ 6.3 µg/mL); in test [4], 4.86 µM (≈ 12.5 µg/mL); in [6] it was 8 µM (≈ 20.6 µg/mL); in test [5], 4.86 µM (≈ 12.5 µg/mL).

As for `CC[C@H](C)[C@H](NC(=O)[C@@H](NC(=O)[C@@H]1CCCN1C(=O)[C@H](CC(C)C)NC(=O)[C@@H](N)Cc1ccccc1)[C@@H](C)CC)C(=O)NCC(=O)N[C@@H](CCC(N)=O)C(=O)N[C@@H](CC(C)C)C(=O)N[C@@H](CC(C)C)C(=O)N[C@@H](CO)C(=O)NCC(=O)N[C@@H](CC(C)C)C(=O)N[C@@H](CC(C)C)C(N)=O` [FLPIIGQLLSGLL], the MIC in test [7] was greater than 80 µM; in [8], no less than 80 µM; in test [9], no less than 80 µM.

As for `CSCC[C@H](NC(=O)[C@H](CCCCN)NC(=O)[C@H](Cc1ccccc1)NC(=O)CN)C(=O)N[C@@H](C)C(=O)N[C@@H](CC(C)C)C(=O)N[C@@H](CCCCN)C(=O)N[C@@H](CC(C)C)C(=O)N[C@@H](CC(C)C)C(=O)N[C@@H](CCCCN)C(=O)N[C@@H](CCCCN)C(=O)N[C@H](C(=O)N[C@@H](CC(C)C)C(N)=O)C(C)C` [GFKMALKLLKKVL], the MIC against Bacillus subtilis 168 worked out at 1.3 µM (≈ 1.93 µg/mL); in test [10] it was 4.3 µM (≈ 6.4 µg/mL); with Escherichia coli B, 2.3 µM (≈ 3.42 µg/mL); against Pseudomonas aeruginosa it was 11.3 µM (≈ 16.8 µg/mL); against Staphylococcus aureus, 5 µM (≈ 7.44 µg/mL).

As to `CC[C@H](C)[C@H](NC(=O)[C@H](CC(C)C)NC(=O)[C@H](Cc1cnc[nH]1)NC(=O)CNC(=O)[C@H](CC(C)C)NC(=O)[C@@H](NC(=O)[C@H](CCCCN)NC(=O)[C@H](CCCCN)NC(=O)[C@H](Cc1c[nH]c2ccccc12)NC(=O)[C@H](CCCCN)NC(=O)CN)[C@@H](C)CC)C(=O)N[C@@H](CCCN=C(N)N)C(N)=O` [GKWKKILGHLIR], the MIC worked out at 1.2 µM (≈ 1.74 µg/mL) in the test on Bacillus subtilis 168; 5.3 µM (≈ 7.67 µg/mL) in test [10]; 2.7 µM (≈ 3.91 µg/mL) in the test on Escherichia coli B; 30 µM (≈ 43.4 µg/mL) against Pseudomonas aeruginosa; 28.3 µM (≈ 41 µg/mL) in the test with Staphylococcus aureus.

With `CC[C@H](C)[C@H](NC(=O)[C@H](Cc1cnc[nH]1)NC(=O)[C@H](CCCCN)NC(=O)[C@H](CC(C)C)NC(=O)[C@H](CC(C)C)NC(=O)[C@H](CO)NC(=O)[C@H](CCSC)NC(=O)[C@H](Cc1c[nH]c2ccccc12)NC(=O)[C@H](CCCCN)NC(=O)CN)C(=O)N[C@@H](CC(C)C)C(=O)N[C@@H](CCCCN)C(N)=O` [GKWMSLLKHILK], the MIC in the test on Bacillus subtilis 168 is 1 µM (≈ 1.45 µg/mL); in [10], 6.6 µM (≈ 9.59 µg/mL); in the test on Escherichia coli B, 2.5 µM (≈ 3.63 µg/mL); against Pseudomonas aeruginosa, 42.1 µM (≈ 61.2 µg/mL); with Staphylococcus aureus it was 8.1 µM (≈ 11.8 µg/mL).

As to `CC[C@H](C)[C@H](N)C(=O)N[C@@H](CC(C)C)C(=O)NCC(=O)N1CCC[C@H]1C(=O)N[C@H](C(=O)N[C@H](C(=O)N[C@@H](CO)C(=O)N[C@H](C(=O)N[C@H](C(=O)NCC(=O)NCC(=O)N[C@H](C(=O)N[C@@H](CC(C)C)C(=O)NCC(=O)NCC(=O)N[C@@H](CC(C)C)C(=O)N[C@@H](CC(C)C)C(=O)N[C@@H](CCCCN)C(=O)N[C@@H](CC(N)=O)C(=O)N[C@@H](CC(C)C)C(N)=O)C(C)C)[C@@H](C)CC)[C@@H](C)O)[C@@H](C)CC)C(C)C` [ILGPVISTIGGVLGGLLKNL], the MIC in [3] turned out to be 2.33 µM (≈ 4.5 µg/mL); in test [4] it was 4.65 µM (≈ 9 µg/mL); in test [11] it was 4.65 µM (≈ 9 µg/mL); in test [5], 2.33 µM (≈ 4.5 µg/mL).

Consider `CC[C@H](C)[C@H](N)C(=O)N[C@@H](CC(N)=O)C(=O)N[C@@H](Cc1c[nH]c2ccccc12)C(=O)N[C@@H](CCCCN)C(=O)N[C@@H](CCCCN)C(=O)N[C@H](C(=O)N[C@@H](C)C(=O)N[C@@H](CCC(=O)O)C(=O)N[C@H](C(=O)NCC(=O)N[C@@H](CCCCN)C(=O)N[C@@H](CCC(N)=O)C(=O)N[C@H](C(=O)N[C@@H](CC(C)C)C(=O)N[C@@H](CO)C(=O)N[C@@H](C)C(=O)N[C@@H](CC(C)C)C(N)=O)C(C)C)[C@@H](C)CC)[C@@H](C)CC` [INWKKIAEIGKQVLSAL], for which the figures for the MIC (in [2]; against Escherichia coli JM109) were 1.05 µM (≈ 2 µg/mL) and 4.19 µM (≈ 8 µg/mL), respectively.

For the compound `CC[C@H](C)[C@H](NC(=O)[C@@H]1CCCN1C(=O)[C@H](CC(C)C)NC(=O)[C@@H](N)CC(C)C)C(=O)N[C@H](C(=O)NCC(=O)N[C@@H](CC(N)=O)C(=O)N[C@@H](CC(C)C)C(=O)N[C@@H](CC(C)C)C(=O)N[C@@H](CCCCN)C(=O)N[C@@H](CO)C(=O)N[C@@H](CC(C)C)C(=O)N[C@@H](CC(C)C)C(=O)NCC(=O)N[C@@H](C)C(=O)N[C@@H](CCCCN)C(=O)N[C@@H](CCCN=C(N)N)C(=O)N[C@@H](CCCCN)C(=O)N[C@@H](CCCN=C(N)N)C(=O)N[C@@H](C)C(=O)NCC(N)=O)C(C)C` [LLPIVGNLLKSLLGAKRKRAG], the MIC in the test on Bacillus subtilis is no less than 100 µM; in test [7], greater than 200 µM; against Escherichia coli, 100 µM (≈ 222 µg/mL); in [12], no less than 200 µM; in [6], 100 µM (≈ 222 µg/mL); in test [13] it was greater than 200 µM. The MIC in test [14] is 100 µM (≈ 222 µg/mL); in test [15] it was no less than 200 µM.

`CC(C)C[C@H](NC(=O)[C@H](CCCCN)NC(=O)[C@H](CCCN=C(N)N)NC(=O)[C@H](Cc1c[nH]c2ccccc12)NC(=O)[C@H](Cc1c[nH]c2ccccc12)NC(=O)[C@H](CCCCN)NC(=O)[C@H](CCCCN)NC(=O)[C@H](Cc1c[nH]c2ccccc12)NC(=O)[C@H](CCCN=C(N)N)NC(=O)[C@H](CCCCN)NC(=O)[C@@H](N)C(C)C)C(=O)N[C@@H](CCCCN)C(=O)N[C@@H](CCCCN)C(=O)N[C@@H](CO)C(=O)N[C@H](C(N)=O)C(C)C` [VKRWKKWWRKLKKSV]: the MIC against Bacillus subtilis is no less than 48.6 µM; in [3] it was 4.56 µM (≈ 9.38 µg/mL); in test [4], 9.12 µM (≈ 18.7 µg/mL); in test [5] it was no less than 48.6 µM.

Take `CC(C)C[C@H](NC(=O)[C@H](Cc1c[nH]c2ccccc12)NC(=O)[C@H](CCC(N)=O)NC(=O)[C@@H](N)C(C)C)C(=O)N[C@@H](CCC(=O)O)C(=O)N[C@@H](CCC(N)=O)C(=O)N[C@@H](CCC(N)=O)C(=O)N[C@H](C(=O)N[C@@H](C)C(=O)N[C@@H](CCCCN)C(=O)N[C@@H](CCCN=C(N)N)C(=O)N[C@@H](CCCN=C(N)N)C(=O)N[C@H](C(=O)N[C@@H](CCCCN)C(=O)N[C@@H](CCCN=C(N)N)C(=O)O)[C@@H](C)O)C(C)C` [VQWLEQQVAKRRTKR]: the MIC is no less than 100 µM against Bacillus subtilis; greater than 100 µM in [7]; greater than 100 µM with Escherichia coli; no less than 100 µM in [12]; greater than 100 µM in [6]; greater than 100 µM in [13]. Further, the figures for the MIC in [14] and in test [15] were greater than 100 µM and no less than 100 µM, respectively.
